Several values for one entry are separate records, joined by “and”; a condition that tells them apart may be missing. Equal values may be shown once. Inconclusive results and toxic doses are left out. The calls were made as follows: active = survival T/C of 150% or more; inactive = T/C below 125% in these data.
System: CD2F1 mice, L1210 leukemia ip, survival T/C
Experiment: NCI In Vivo Anticancer Drug Screen. Data for tumor model L1210 Leukemia (intraperitoneal) in CD2F1 (CDF1) mice
Settings: endpoint: mean survival time, higher = longer survival
In short: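 Mice carrying a transplanted tumor received test compound or vehicle alone. The value is the measurement in the treated group divided by that in the vehicle-treated control group.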

[1] = dose: 100.0 mg/kg/injection, schedule: Q04DX002 (ip), vehicle: saline with Tween-80
[2] = dose: 100.0 mg/kg/injection, schedule: Q01DX009 (ip), vehicle: saline with Tween-80
[3] = dose: 100.0 mg/kg/injection, schedule: Q04DX003 (ip), vehicle: saline with Tween-80
[4] = dose: 200.0 mg/kg/injection, schedule: Q01DX009 (ip), vehicle: saline with Tween-80
[5] = dose: 200.0 mg/kg/injection, schedule: Q04DX003 (ip), vehicle: saline with Tween-80
[6] = dose: 400.0 mg/kg/injection, schedule: Q01DX009 (ip), vehicle: saline with Tween-80
[7] = dose: 400.0 mg/kg/injection, schedule: Q04DX003 (ip), vehicle: saline with Tween-80

Measured: T/C

CCCOC(=O)COc1ccc(F)cc1F
inactive: dose: 25.0 mg/kg/injection, schedule: Q04DX002 (ip), vehicle: saline with Tween-80 103 % of control | dose: 50.0 mg/kg/injection, schedule: Q04DX002 (ip), vehicle: saline with Tween-80 100 % of control | [1] 92 % of control and 95 % of control | dose: 400.0 mg/kg/injection, schedule: Q04DX002 (ip), vehicle: saline with Tween-80 95 % of control

CO[C@]12[C@@H](COC(N)=O)C3=C(C(=O)C(C)=C(NCC4CCCO4)C3=O)N1C[C@@H]1[C@H]2N1C (stereo not given in full)
inactive: dose: 1.5 mg/kg/injection, schedule: Q01DX001 (ip), vehicle: saline with Tween-80 102 % of control | dose: 3.0 mg/kg/injection, schedule: Q01DX001 (ip), vehicle: saline with Tween-80 98 % of control | dose: 6.0 mg/kg/injection, schedule: Q01DX001 (ip), vehicle: saline with Tween-80 104 % of control | dose: 12.0 mg/kg/injection, schedule: Q01DX001 (ip), vehicle: saline with Tween-80 104 % of control | dose: 24.0 mg/kg/injection, schedule: Q01DX001 (ip), vehicle: distilled water + Tween-80 114 % of control | dose: 24.0 mg/kg/injection, schedule: Q01DX001 (ip), vehicle: saline with Tween-80 116 % of control | dose: 25.0 mg/kg/injection, schedule: Q01DX001 (ip), vehicle: distilled water + Tween-80 121 % of control | dose: 48.0 mg/kg/injection, schedule: Q01DX001 (ip), vehicle: distilled water + Tween-80 124 % of control | dose: 100.0 mg/kg/injection, schedule: Q01DX001 (ip), vehicle: distilled water + Tween-80 113 % of control

O=c1oc(-c2ccccc2)nc2cc(Cl)ccc12
inactive: dose: 25.0 mg/kg/injection, schedule: Q01DX009 (ip), vehicle: saline with Tween-80 105 % of control | dose: 50.0 mg/kg/injection, schedule: Q01DX009 (ip), vehicle: saline with Tween-80 100 % of control | [2] 105 % of control

CCCCCCCCCC(=O)CCCCC
inactive: dose: 100.0 mg/kg/injection, schedule: Q04DX003 (ip), vehicle: other 89 % of control | dose: 200.0 mg/kg/injection, schedule: Q04DX003 (ip), vehicle: other 94 % of control | dose: 400.0 mg/kg/injection, schedule: Q04DX003 (ip), vehicle: other 103 % of control

Nc1ccccc1N=Cc1cccc([N+](=O)[O-])c1
inactive: [2] 94 % of control | [3] 101 % of control | [4] 96 % of control | [5] 98 % of control | [6] 100 % of control | [7] 101 % of control

CCc1c(O)c2c(c(O)c1C(C)=O)C(=O)c1c(cc(O)c(C(=O)O)c1C(=O)O)C2=O
inactive: dose: 50.0 mg/kg/injection, schedule: Q01DX009 (ip), vehicle: saline 108 % of control | dose: 100.0 mg/kg/injection, schedule: Q01DX009 (ip), vehicle: saline 116 % of control

O=C1Nc2ccccc2C1c1ccccc1 (stereo not given)
inactive: [1] 97 % of control | dose: 200.0 mg/kg/injection, schedule: Q04DX002 (ip), vehicle: saline with Tween-80 90 % of control

COC(=O)N/N=C/Cc1ccccc1
inactive: [2] 93 % of control

Cc1cc2c(ccc3c2ccc2cccc(C)c23)c2ccccc12
inactive: dose: 75.0 mg/kg/injection, schedule: Q01DX001 (ip), vehicle: saline 95 % of control | dose: 150.0 mg/kg/injection, schedule: Q01DX001 (ip), vehicle: saline 88 % of control | dose: 300.0 mg/kg/injection, schedule: Q01DX001 (ip), vehicle: saline 94 % of control

Cc1cc(C)c(C(=O)CCCC(=O)O)c(C)c1
inactive: [3] 94 % of control | [5] 92 % of control

Cc1cc(C)c(C(=O)C2Oc3ccccc3C2c2ccccc2)c(C)c1 (stereo not given)
inactive: [2] 95 % of control | [3] 100 % of control | [4] 97 % of control | [5] 102 % of control | [6] 91 % of control | [7] 100 % of control

CC(=O)OCC1OC([Se][As](C)C)C(OC(C)=O)C(OC(C)=O)C1OC(C)=O (stereo not given)
inactive: dose: 3.13 mg/kg/injection, schedule: Q01DX009 (ip), vehicle: saline with Tween-80 98 % of control | dose: 6.25 mg/kg/injection, schedule: Q01DX001 (ip), vehicle: saline with Tween-80 95 % of control | dose: 6.25 mg/kg/injection, schedule: Q01DX009 (ip), vehicle: saline with Tween-80 96 % of control | dose: 12.5 mg/kg/injection, schedule: Q01DX001 (ip), vehicle: saline with Tween-80 97 % of control | dose: 12.5 mg/kg/injection, schedule: Q01DX009 (ip), vehicle: saline with Tween-80 96 % of control

CCc1c(C)c(=O)n(C)c2ccccc12
inactive: [3] 98 % of control | [5] 101 % of control | [7] 102 % of control

Cc1ccc(N2C(=O)CC(Sc3ccccc3N)C2=O)cc1Cl (stereo not given)
inactive: [2] 95 % of control | [4] 103 % of control | [6] 95 % of control

CC(=O)Oc1ccc(Cl)cc1
inactive: [2] 95 % of control | [3] 103 % of control | [4] 98 % of control | [5] 89 % of control | [7] 89 % of control

COP(=O)(O)OCC1OC(n2cnc3c(N)ncnc32)C(O)C1O (stereo not given)
inactive: dose: 12.5 mg/kg/injection, schedule: Q01DX005 (ip), vehicle: distilled water + Tween-80 96 % of control | dose: 25.0 mg/kg/injection, schedule: Q01DX005 (ip), vehicle: distilled water + Tween-80 102 % of control | dose: 50.0 mg/kg/injection, schedule: Q01DX005 (ip), vehicle: distilled water + Tween-80 106 % of control | dose: 100.0 mg/kg/injection, schedule: Q01DX005 (ip), vehicle: distilled water + Tween-80 100 % of control | dose: 200.0 mg/kg/injection, schedule: Q01DX005 (ip), vehicle: distilled water + Tween-80 106 % of control

O=C1CC(=O)N(C2OC(CO)C(O)C2O)C(=O)N1 (stereo not given)
inactive: dose: 12.5 mg/kg/injection, schedule: Q01DX005 (ip), vehicle: water 94 % of control | dose: 25.0 mg/kg/injection, schedule: Q01DX005 (ip), vehicle: water 100 % of control | dose: 50.0 mg/kg/injection, schedule: Q01DX005 (ip), vehicle: water 106 % of control | dose: 100.0 mg/kg/injection, schedule: Q01DX005 (ip), vehicle: water 106 % of control | dose: 200.0 mg/kg/injection, schedule: Q01DX005 (ip), vehicle: water 105 % of control | dose: 400.0 mg/kg/injection, schedule: Q01DX005 (ip), vehicle: water 100 % of control

O=c1cc(Cl)c(=O)[nH][nH]1
inactive: dose: 100.0 mg/kg/injection, schedule: Q01DX001 (ip), vehicle: other 104 % of control | [2] 92 % of control | [3] 94 % of control | dose: 200.0 mg/kg/injection, schedule: Q01DX001 (ip), vehicle: other 97 % of control | [4] 94 % of control | [5] 94 % of control | dose: 400.0 mg/kg/injection, schedule: Q01DX001 (ip), vehicle: other 98 % of control | [6] 97 % of control | [7] 96 % of control

CC1OC(=O)C2(C(C)C)CC12 (stereo not given)
inactive: dose: 9.5 mg/kg/injection, schedule: Q01DX001 (ip), vehicle: other 103 % of control | dose: 19.0 mg/kg/injection, schedule: Q01DX001 (ip), vehicle: other 106 % of control

CCOC(=O)/C=C/C(=O)O.[Zn+2]
inactive: dose: 3.12 mg/kg/injection, schedule: Q04DX003 (ip), vehicle: saline 100 % of control | dose: 6.25 mg/kg/injection, schedule: Q04DX003 (ip), vehicle: saline 100 % of control | dose: 12.5 mg/kg/injection, schedule: Q04DX003 (ip), vehicle: saline 100 % of control

CC(C)c1cc2cc(Br)ccc2o1
inactive: dose: 100.0 mg/kg/injection, schedule: Q01DX001 (ip), vehicle: saline 103 % of control | dose: 200.0 mg/kg/injection, schedule: Q01DX001 (ip), vehicle: saline 95 % of control

CCOC(=O)C(C(=O)OCC)N(Cc1ccccc1)Cc1ccccc1
inactive: dose: 12.5 mg/kg/injection, schedule: Q01DX009 (ip), vehicle: other 93 % of control | dose: 25.0 mg/kg/injection, schedule: Q01DX009 (ip), vehicle: other 93 % of control | dose: 50.0 mg/kg/injection, schedule: Q01DX009 (ip), vehicle: other 96 % of control | dose: 100.0 mg/kg/injection, schedule: Q01DX009 (ip), vehicle: other 93 % of control | dose: 200.0 mg/kg/injection, schedule: Q01DX009 (ip), vehicle: other 90 % of control

Cc1cc(C)c(S(=O)(=O)n2ccnc2)c(C)c1
inactive: dose: 50.0 mg/kg/injection, schedule: Q01DX009 (ip), vehicle: Klucel (hydroxypropylcellulose) (HPC) 94 % of control | dose: 100.0 mg/kg/injection, schedule: Q01DX009 (ip), vehicle: Klucel (hydroxypropylcellulose) (HPC) 94 % of control | dose: 200.0 mg/kg/injection, schedule: Q01DX009 (ip), vehicle: Klucel (hydroxypropylcellulose) (HPC) 105 % of control

CCCCCCCCC(=O)CCCC
inactive: dose: 100.0 mg/kg/injection, schedule: Q04DX003 (ip), vehicle: saline 102 % of control | dose: 200.0 mg/kg/injection, schedule: Q04DX003 (ip), vehicle: saline 100 % of control | dose: 400.0 mg/kg/injection, schedule: Q04DX003 (ip), vehicle: saline 98 % of control
